Results as given in patent US5063242A (priority 1990, dated 1991).

Test system: carrageenan footpad edema in rats
Conditions: rat, in vivo, po, 5 mg/kg

Compound: COc1ccc2c(c1)c(CC(=O)O)c(C)n2C(=O)c1ccc(Cl)cc1 [Indomethacin]
- % I: 48%
- Delta Edema (x ± SEM): 40 ± 2.5
